Reference: US6914045B2, “Glycopeptide antibiotics” (Wyeth Holdings Corporation, priority 2001, dated 2005)
Converted amounts (≈) assume the structure as drawn.

How the values were obtained:
Assay in all cases: in vitro antibacterial evaluation, MIC by broth dilution
Type in all cases: cell-based
Enterococcus sp. = details: broth dilution, 18 hours at 35° C.
Method in brief: (§1)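 Following National Committee for Clinical Laboratory Standards recommendations (M7-A2), susceptibility was measured by dilution in Muller-Hinton II […]. Bacteria were seeded at 5×10^5 CFU/mL against compound concentrations from 64 down to 0.06 μg/mL.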

Staphylococcus sp. = details: broth dilution, 18 hours at 35° C.
Method in brief: as §1

Streptococcus sp. = details: broth dilution, 18 hours at 35° C.
Method in brief: as §1

Escherichia coli = details: 18 hours at 35° C.

COc1ccc(COC2C(CO)OC(OC3C(CO)OC(Oc4ccc(CC5NC(=O)C(C(C)c6ccccc6)NC(=O)CNC(=O)C(CO)NC(=O)C(C(O)C6CNC(=N)N6C6OC(CO)C(O)C(O)C6O)NC(=O)C(C(O)C6CNC(=N)N6)NC5=O)cc4)C(O)C3O)C(O)C2O)cc1OCc1ccccc1 (stereo not shown) [Example 239a]
MIC Enterococcus avium (GC 4558) (Enterococcus sp.): 8 µg/mL (≈ 5.26 µM) | MIC Enterococcus faecalis (ATCC 29212) (Enterococcus sp.): 8 µg/mL (≈ 5.26 µM) | MIC Enterococcus faecalis (GC 2242) (Enterococcus sp.): 8 µg/mL (≈ 5.26 µM) | MIC Enterococcus faecalis (GC 2691) (Enterococcus sp.): 8 µg/mL (≈ 5.26 µM) | MIC Enterococcus faecalis (GC 3059) (Enterococcus sp.): 8 µg/mL (≈ 5.26 µM) | MIC Enterococcus faecalis (GC 4552) (Enterococcus sp.): 8 µg/mL (≈ 5.26 µM) | MIC Enterococcus faecalis (GC 4553) (Enterococcus sp.): 8 µg/mL (≈ 5.26 µM) | MIC Enterococcus faecalis (GC 4554) (Enterococcus sp.): 16 µg/mL (≈ 10.5 µM) | MIC Enterococcus faecalis (GC 6189) (Enterococcus sp.): 8 µg/mL (≈ 5.26 µM) | MIC Enterococcus faecium (GC 2243) (Enterococcus sp.): 8 µg/mL (≈ 5.26 µM) | MIC Enterococcus faecium (GC 4556) (Enterococcus sp.): 8 µg/mL (≈ 5.26 µM) | MIC Enterococcus faecium (GC 4557) (Enterococcus sp.): 4 µg/mL (≈ 2.63 µM) | MIC Enterococcus faecalis (ATCC 29212) (Enterococcus sp.; strain ATCC 29212): 8 µg/mL (≈ 5.26 µM) | MIC Enterococcus faecium (GC 2243) (Enterococcus sp.; strain GC 2243): 8 µg/mL (≈ 5.26 µM) | MIC Enterococcus faecalis (GC 4552) (Enterococcus sp.; strain GC 4552): 8 µg/mL (≈ 5.26 µM) | MIC Enterococcus faecalis (GC 4553) (Enterococcus sp.; strain GC 4553): 8 µg/mL (≈ 5.26 µM) | MIC Enterococcus faecalis (GC 4554) (Enterococcus sp.; strain GC 4554): 16 µg/mL (≈ 10.5 µM) | MIC Enterococcus faecium (GC 4556) (Enterococcus sp.; strain GC 4556): 8 µg/mL (≈ 5.26 µM) | MIC Enterococcus faecium (GC 4557) (Enterococcus sp.; strain GC 4557): 4 µg/mL (≈ 2.63 µM) | MIC Enterococcus avium (GC 4558) (Enterococcus sp.; strain GC 4558): 8 µg/mL (≈ 5.26 µM) | MIC Enterococcus faecalis (GC 6189) (Enterococcus sp.; strain GC 6189): 8 µg/mL (≈ 5.26 µM) | MIC Enterococcus faecalis (GC 2242) (Enterococcus sp.; inoculum 5×10^5 CFU/mL, strain GC 2242): 8 µg/mL (≈ 5.26 µM) | MIC Enterococcus faecalis (GC 2691) (Enterococcus sp.; inoculum 5×10^5 CFU/mL, strain GC 2691): 8 µg/mL (≈ 5.26 µM) | MIC Enterococcus faecalis (GC 3059) (Enterococcus sp.; inoculum 5×10^5 CFU/mL, strain GC 3059): 8 µg/mL (≈ 5.26 µM) | MIC Coagulase Negative Staphylococcus (GC 4547) (Staphylococcus sp.): 2 µg/mL (≈ 1.31 µM) | MIC Coagulase Negative Staphylococcus (GC 4548) (Staphylococcus sp.): 1 µg/mL (≈ 0.657 µM) | MIC Coagulase Negative Staphylococcus (GC 4549) (Staphylococcus sp.): 2 µg/mL (≈ 1.31 µM) | MIC Coagulase Negative Staphylococcus (GC 4551) (Staphylococcus sp.): 2 µg/mL (≈ 1.31 µM) | MIC Coagulase Negative Staphylococcus (GC 6257) (Staphylococcus sp.): 2 µg/mL (≈ 1.31 µM) | MIC Staphylococcus aureus (ATCC 29213) (Staphylococcus sp.): 4 µg/mL (≈ 2.63 µM) | MIC Staphylococcus aureus (GC 1131) (Staphylococcus sp.): 4 µg/mL (≈ 2.63 µM) | MIC Staphylococcus aureus (GC 3051) (Staphylococcus sp.): 2 µg/mL (≈ 1.31 µM) | MIC Staphylococcus aureus (GC 3053) (Staphylococcus sp.): 4 µg/mL (≈ 2.63 µM) | MIC Staphylococcus aureus (GC 4541) (Staphylococcus sp.): 4 µg/mL (≈ 2.63 µM) | MIC Staphylococcus aureus (GC 4542) (Staphylococcus sp.): 4 µg/mL (≈ 2.63 µM) | MIC Staphylococcus aureus (GC 4544) (Staphylococcus sp.): 4 µg/mL (≈ 2.63 µM) | MIC Staphylococcus aureus (GC 4545) (Staphylococcus sp.): 4 µg/mL (≈ 2.63 µM) | MIC Staphylococcus aureus-SMITH (GC 4543) (Staphylococcus sp.): 2 µg/mL (≈ 1.31 µM) | MIC Staphylococcus haemolyticus (GC 4546) (Staphylococcus sp.): 2 µg/mL (≈ 1.31 µM) | MIC Staphylococcus aureus (ATCC 29213) (Staphylococcus sp.; strain ATCC 29213): 4 µg/mL (≈ 2.63 µM) | MIC Staphylococcus aureus (GC 1131) (Staphylococcus sp.; strain GC 1131): 4 µg/mL (≈ 2.63 µM) | MIC Staphylococcus aureus (GC 3051) (Staphylococcus sp.; strain GC 3051): 2 µg/mL (≈ 1.31 µM) | MIC Staphylococcus aureus (GC 3053) (Staphylococcus sp.; strain GC 3053): 4 µg/mL (≈ 2.63 µM) | MIC Staphylococcus aureus (GC 4541) (Staphylococcus sp.; strain GC 4541): 4 µg/mL (≈ 2.63 µM) | MIC Staphylococcus aureus (GC 4542) (Staphylococcus sp.; strain GC 4542): 4 µg/mL (≈ 2.63 µM) | MIC Staphylococcus aureus-SMITH (GC 4543) (Staphylococcus sp.; strain GC 4543): 2 µg/mL (≈ 1.31 µM) | MIC Staphylococcus aureus (GC 4544) (Staphylococcus sp.; strain GC 4544): 4 µg/mL (≈ 2.63 µM) | MIC Staphylococcus aureus (GC 4545) (Staphylococcus sp.; strain GC 4545): 4 µg/mL (≈ 2.63 µM) | MIC Staphylococcus haemolyticus (GC 4546) (Staphylococcus sp.; strain GC 4546): 2 µg/mL (≈ 1.31 µM) | MIC Coagulase Negative Staphylococcus (GC 4547) (Staphylococcus sp.; strain GC 4547): 2 µg/mL (≈ 1.31 µM) | MIC Coagulase Negative Staphylococcus (GC 4548) (Staphylococcus sp.; strain GC 4548): 1 µg/mL (≈ 0.657 µM) | MIC Coagulase Negative Staphylococcus (GC 4549) (Staphylococcus sp.; strain GC 4549): 2 µg/mL (≈ 1.31 µM) | MIC Coagulase Negative Staphylococcus (GC 4551) (Staphylococcus sp.; strain GC 4551): 2 µg/mL (≈ 1.31 µM) | MIC Coagulase Negative Staphylococcus (GC 6257) (Staphylococcus sp.; strain GC 6257): 2 µg/mL (≈ 1.31 µM) | MIC Streptococcus agalactiae (GC 4564) (Streptococcus sp.): 1 µg/mL (≈ 0.657 µM) | MIC Streptococcus pneumoniae (ATCC 6301) (Streptococcus sp.): 0.25 µg/mL (≈ 0.164 µM) | MIC Streptococcus pneumoniae (GC 1894) (Streptococcus sp.): <0.06 µg/mL | MIC Streptococcus pneumoniae (GC 4565) (Streptococcus sp.): 0.25 µg/mL (≈ 0.164 µM) | MIC Streptococcus pyogenes (GC 4563) (Streptococcus sp.): 2 µg/mL (≈ 1.31 µM) | MIC Streptococcus pneumoniae (ATCC 6301) (Streptococcus sp.; inoculum 5×10^5 CFU/mL, strain ATCC 6301): 0.25 µg/mL (≈ 0.164 µM) | MIC Streptococcus pneumoniae (GC 1894) (Streptococcus sp.; inoculum 5×10^5 CFU/mL, strain GC 1894): <0.06 µg/mL | MIC Streptococcus pyogenes (GC 4563) (Streptococcus sp.; inoculum 5×10^5 CFU/mL, strain GC 4563): 2 µg/mL (≈ 1.31 µM) | MIC Streptococcus agalactiae (GC 4564) (Streptococcus sp.; inoculum 5×10^5 CFU/mL, strain GC 4564): 1 µg/mL (≈ 0.657 µM) | MIC Streptococcus pneumoniae (GC 4565) (Streptococcus sp.; inoculum 5×10^5 CFU/mL, strain GC 4565): 0.25 µg/mL (≈ 0.164 µM) | MIC Escherichia coli (ATCC 25922) (Escherichia coli): >64 µg/mL | MIC Escherichia coli (GC 4559) (Escherichia coli): >64 µg/mL | MIC Escherichia coli (GC 4560) (Escherichia coli): 2 µg/mL (≈ 1.31 µM)
